# Where two headings read alike, the source gives them in different places. Residues, ends and D or L forms follow the SMILES beside them. *: point of attachment. Cbz = O=C(OCc1ccccc1)*; CH2F = FC*
# Tests used:
# [1] = tested on: BK virus (BKV), Gardner strain; parameters: SI50 / SI90: unit not given beside the values
# [2] = tested on: BK virus (BKV), Gardner strain; assay: microbe, parasite or virus in culture; conditions: Betapolyomavirus hominis, HFF
# in vitro [3] = conditions: rat, s9, T1/2
# [4] = Rat plasma pharmacokinetics after IV infusion and PO dose; conditions: rats; 10 mg/kg IV 2-h infusion and PO
# JC virus (JCV) [5] = assay: microbe, parasite or virus in culture; conditions: JC polyomavirus, COS-7
# in vivo = conditions: male, Sprague-Dawley, rat; for AUC(0-inf): AUCInf; for AUC(0-t): AUClast; for MRT inf: MRTInf
# JC virus (JCV) [6] = tested on: JC virus (JCV)
# in vitro [7] = conditions: African green monkey
# in vitro [8] = conditions: male, SD, rat, plasma
# [9] = rat, 1 μM
# in vitro [10] = conditions: both, human, plasma
# in vitro [11] = conditions: human
# in vitro [12] = conditions: human, s9, T1/2
# [13] = human, 1 μM
# [14] = tested on: SARS-CoV-2 (USA-WA1/2020)
# [15] = tested on: SARS-CoV-2 (USA-WA1/2020); format: cell-based; conditions: compound replenished daily, SI = CC50/EC50
# MERS-CoV (EMC) = format: cell-based; conditions: SI = CC50/EC50
# MOLT-3 cells = conditions: human, 7 d
# [16] = tested on: Epstein-Barr virus (EBV), Akata strain; parameters: SI50 / SI90: unit not given beside the values
# [17] = tested on: Epstein-Barr virus (EBV), Akata strain; assay: microbe, parasite or virus in culture; conditions: human gammaherpesvirus 4, Akata, 72 h
# in vitro [18] = conditions: human; remark: listed apart in the source
structure (smiles),measurement,setting,value
"CCCCCCCCCCCCCCCCOCCCOP(=O)(O)CO[C@H](CO)Cn1ccc(N)nc1=O [BCV, Brincidofovir]",activity against BK virus (in words),[1],high or moderate activity
same,EC50,[2],0.06 µM
same,EC90,[2],0.39 µM
same,half-life at 1 μM,in vitro [3],461 min
same,tolerability / adverse events (AE),[4],well-tolerated
same,EC50,JC virus (JCV) [5],0.74 µM
same,EC90,JC virus (JCV) [5],1.85 µM
same,concentration at 0.5 h,"in vivo; iv, 10 mg/kg",3400 nM
same,concentration at 1 h,"in vivo; iv, 10 mg/kg",3200 nM
same,concentration at 2 h,"in vivo; iv, 10 mg/kg",3660 nM
same,concentration at 4 h,"in vivo; iv, 10 mg/kg",45 nM
same,concentration at 8 h,"in vivo; iv, 10 mg/kg",9 nM
same,concentration at 24 h,"in vivo; iv, 10 mg/kg",6 nM
same,AUC(0-inf),"in vivo; iv, 10 mg/kg",9.01 µM·h
same,AUC(0-t),"in vivo; iv, 10 mg/kg",8.98 µM·h
same,clearance,"in vivo; iv, 10 mg/kg, CL",33.3 mL/min/kg
same,Cmax,"in vivo; iv, 10 mg/kg",3760 nM
same,MRT inf,"in vivo; iv, 10 mg/kg",1.9 h
same,Vd,"in vivo; iv, 10 mg/kg, Vss",3.7 L/kg
same,half-life,"in vivo; iv, 10 mg/kg, t1/2",48 min
same,half-life,"in vivo; iv, t1/2 in plasma",< 60 min
same,bioavailability,"in vivo; po, 10 mg/kg",11%
same,concentration at 0.5 h,"in vivo; po, 10 mg/kg",21 nM
same,concentration at 1 h,"in vivo; po, 10 mg/kg",25 nM
same,concentration at 2 h,"in vivo; po, 10 mg/kg",42 nM
same,concentration at 4 h,"in vivo; po, 10 mg/kg",39 nM
same,concentration at 8 h,"in vivo; po, 10 mg/kg",11 nM
same,AUC(0-inf),"in vivo; po, 10 mg/kg",1.2 µM·h
same,AUC(0-t),"in vivo; po, 10 mg/kg",1.17 µM·h
same,Cmax,"in vivo; po, 10 mg/kg",141 nM
same,MRT inf,"in vivo; po, 10 mg/kg",6.9 h
same,half-life,"in vivo; po, 10 mg/kg, t1/2",252 min
same,Tmax,"in vivo; po, 10 mg/kg, tmax",4 h
same,activity against JC virus (in words),JC virus (JCV) [6],high or moderate activity
same,CC50,in vitro [7],9.25 µM
same,half-life at 0.75 μM,in vitro [8],> 558 min
same,CLhep,[9],11.5 mL/min/kg
same,Eh,[9],16%
same,half-life at 0.75 μM,in vitro [10],> 558 min
same,CC50,in vitro [11],> 10 µM
same,half-life at 1 μM,in vitro [12],246 min
same,CLhep,[13],9.5 mL/min/kg
same,Eh,[13],31%
"CC(C)CC(NC(=O)OCc1ccccc1)C(=O)NC(CCC(=O)N(C)C)C(=O)CF (stereo not drawn) [M128533, Z-Leu-Gln(NMe2)-FMK, reference compound] (Cbz-Leu-Glu(NMe2)-CH2F; configuration not given here)",CC50,[14],> 100 µg/mL
same,SI50 (SI),"[14]; SARS-CoV-2, SI = CC50/EC50",>1100
same,SI,"SARS-CoV; SARS-CoV, SI = CC50/EC50",>1300
same,EQ50,"SARS-CoV; SARS-CoV, Vero 76 cells, positive control",0.075 µg/mL
same,CC50,"SARS-CoV; Vero 76 cells without virus, positive control",>100 µg/mL
same,SI50,[15],>260
same,SI50 (SI),MERS-CoV (EMC),>13
same,CC50,SARS-CoV-2,>100 µg/mL
same,EQ50,SARS-CoV-2,0.33 µg/mL
same,SI,"SARS-CoV-2; SARS-CoV-2, SI = CC50/EC50",>300
"Nc1ccn(C[C@@H](CO)OCP(=O)(O)O)c(=O)n1 [CDV, Cidofovir, reference compound]",SI50,[1],>35
same,CC50,MOLT-3 cells,97 µM
same,EC50,[2],4.62 µM
same,EC90,[2],106 µM
same,EC50,[2]; 168 h,4.3 µM
same,EC90,[2]; 168 h,24.1 µM
same,SI50,[16],>11
same,SI90,[16],>3
same,EC50,[17],9.23 µM
same,EC90,[17],29.9 µM
same,EC50,JC virus (JCV) [5],5.66 µM
same,EC90,JC virus (JCV) [5],107 µM
same,CC50,in vitro [7],> 150 µM
same,CC50 at 7 d,in vitro [18],101 µM

# Source: patent US12466849B2, “Anti-viral and anti-tumoral compounds” (YEDA RESEARCH AND DEVELOPMENT CO. LTD, priority 2020, dated 2025)
